Numbers after ± are expanded uncertainties.
Assay: excess molar enthalpy (molar enthalpy of mixing); xn = mol fraction of the nth substance listed
Details: Liquid, Flow calorimetry

CCCCCC[N+]1(C)CCCC1.O=S(=O)([N-]S(=O)(=O)C(F)(F)F)C(F)(F)F + Cc1ccccc1
413.15 K, 2377 kPa
Details	excess molar enthalpy [kcal/mol]
x2 = 0.0759	-0.0366 ± 0.00153
x2 = 0.1443	-0.0704 ± 0.00287
x2 = 0.2063	-0.0967 ± 0.00406
x2 = 0.2626	-0.121 ± 0.00502
x2 = 0.314	-0.145 ± 0.00598
x2 = 0.3612	-0.165 ± 0.00669
x2 = 0.4448	-0.189 ± 0.00765
x2 = 0.5165	-0.199 ± 0.00813
x2 = 0.5787	-0.203 ± 0.00837
x2 = 0.6812	-0.188 ± 0.00765
x2 = 0.7622	-0.151 ± 0.00621
x2 = 0.8278	-0.112 ± 0.00454
x2 = 0.9058	-0.0643 ± 0.00263
x2 = 0.9665	-0.0259 ± 0.0011

CCCC[N+]1(C)CCCC1.O=S(=O)([N-]S(=O)(=O)C(F)(F)F)C(F)(F)F + Cc1ccccc1
413.15 K, 2342 kPa
Details	excess molar enthalpy [kcal/mol]
x2 = 0.0687	-0.029 ± 0.00122
x2 = 0.1315	-0.0605 ± 0.00239
x2 = 0.1892	-0.0872 ± 0.00359
x2 = 0.2423	-0.103 ± 0.0043
x2 = 0.2914	-0.119 ± 0.00478
x2 = 0.3368	-0.136 ± 0.0055
x2 = 0.4184	-0.16 ± 0.00645
x2 = 0.4896	-0.168 ± 0.00693
x2 = 0.5523	-0.166 ± 0.00669
x2 = 0.6574	-0.153 ± 0.00621
x2 = 0.7421	-0.123 ± 0.00502
x2 = 0.8119	-0.094 ± 0.00382
x2 = 0.8962	-0.0543 ± 0.00225
x2 = 0.9628	-0.0181 ± 0.000789

CCCCCC[N+]1(C)CCCC1.O=S(=O)([N-]S(=O)(=O)C(F)(F)F)C(F)(F)F + c1ccccc1
393.15 K, 2342 kPa
Details	excess molar enthalpy [kcal/mol]
x2 = 0.0899	-0.0422 ± 0.00174
x2 = 0.1686	-0.0867 ± 0.00359
x2 = 0.238	-0.121 ± 0.00502
x2 = 0.2998	-0.145 ± 0.00598
x2 = 0.355	-0.177 ± 0.00717
x2 = 0.4047	-0.199 ± 0.00813
x2 = 0.4906	-0.227 ± 0.00932
x2 = 0.5622	-0.252 ± 0.0103
x2 = 0.6228	-0.263 ± 0.0108
x2 = 0.7198	-0.236 ± 0.00956
x2 = 0.7939	-0.19 ± 0.00789
x2 = 0.8525	-0.141 ± 0.00574
x2 = 0.9204	-0.0734 ± 0.00311
x2 = 0.972	-0.0246 ± 0.00105

CCCC[N+]1(C)CCCC1.O=S(=O)([N-]S(=O)(=O)C(F)(F)F)C(F)(F)F + c1ccccc1
363.15 K, 2239 kPa
Details	excess molar enthalpy [kcal/mol]
x2 = 0.0815	-0.0309 ± 0.00129
x2 = 0.1541	-0.0622 ± 0.00263
x2 = 0.2191	-0.0851 ± 0.00359
x2 = 0.2777	-0.11 ± 0.00454
x2 = 0.3308	-0.136 ± 0.0055
x2 = 0.3792	-0.154 ± 0.00621
x2 = 0.4639	-0.181 ± 0.00741
x2 = 0.5357	-0.203 ± 0.00837
x2 = 0.7758	-0.175 ± 0.00717
x2 = 0.8385	-0.125 ± 0.00502
x2 = 0.9121	-0.07 ± 0.00287
x2 = 0.9689	-0.0232 ± 0.00098
